Laboratory results as given in patent publication US20230357179A1, “RAF KINASE INHIBITORS AND METHODS OF USE THEREOF” (Deciphera Pharmaceuticals, LLC, priority 2021, published 2023).

What was measured:
H2405 cells = assay: H2405 cell proliferation assay (1), resazurin, 96-well; format: cell-based; conditions: Homo sapiens, NCI-H2405, inhibition of cell proliferation
Summary of the method: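 This is a resazurin viability readout (excitation 540 nm, emission 600 nm) taken 5-6 h after adding 440 μM resazurin solution, giving IC50 values.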

C-Raf kinase = target: T1, C-Raf kinase (Homo sapiens, UniProt P04049, Y340D/Y341D); assay: Biochemical assay for C-Raf.1 (coupled pyruvate kinase/lactate dehydrogenase); conditions: read-out: CRAF.1 IC50
T1 construct: Y340D,; GST (N); purchased Sigma
T1 sequence (P04049 307-648 Y340D/Y341D): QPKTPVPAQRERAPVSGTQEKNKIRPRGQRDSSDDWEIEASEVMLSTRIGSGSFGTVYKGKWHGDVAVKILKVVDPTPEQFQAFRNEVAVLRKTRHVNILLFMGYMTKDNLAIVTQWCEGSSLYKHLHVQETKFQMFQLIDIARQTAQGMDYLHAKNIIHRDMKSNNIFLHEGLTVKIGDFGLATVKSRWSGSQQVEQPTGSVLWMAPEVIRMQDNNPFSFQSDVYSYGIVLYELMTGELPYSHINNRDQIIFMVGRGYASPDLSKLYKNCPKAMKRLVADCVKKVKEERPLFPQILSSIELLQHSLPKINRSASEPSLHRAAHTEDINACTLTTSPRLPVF
Summary of the method: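 C-Raf (0.43 nM) with MEK 30.1 nM and 1 mM ATP in Tris pH 7.5/MgCl2 buffer, activity coupled via PK/LDH to NADH oxidation (A340), 6 h at 30° C. Rates from 4–5 h window converted to % inhibition versus controls; IC50 by four-parameter fit, 1% DMSO.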

A-Raf kinase = target: T2, A-Raf kinase (Homo sapiens, UniProt P10398, Y301D/Y302D); assay: Biochemical assay for A-Raf.1 (coupled pyruvate kinase/lactate dehydrogenase); conditions: read-out: ARAF.1 IC50
T2 construct: purchased Sigma
T2 sequence (P10398 with tags, fused parts or gaps Y301D/Y302D): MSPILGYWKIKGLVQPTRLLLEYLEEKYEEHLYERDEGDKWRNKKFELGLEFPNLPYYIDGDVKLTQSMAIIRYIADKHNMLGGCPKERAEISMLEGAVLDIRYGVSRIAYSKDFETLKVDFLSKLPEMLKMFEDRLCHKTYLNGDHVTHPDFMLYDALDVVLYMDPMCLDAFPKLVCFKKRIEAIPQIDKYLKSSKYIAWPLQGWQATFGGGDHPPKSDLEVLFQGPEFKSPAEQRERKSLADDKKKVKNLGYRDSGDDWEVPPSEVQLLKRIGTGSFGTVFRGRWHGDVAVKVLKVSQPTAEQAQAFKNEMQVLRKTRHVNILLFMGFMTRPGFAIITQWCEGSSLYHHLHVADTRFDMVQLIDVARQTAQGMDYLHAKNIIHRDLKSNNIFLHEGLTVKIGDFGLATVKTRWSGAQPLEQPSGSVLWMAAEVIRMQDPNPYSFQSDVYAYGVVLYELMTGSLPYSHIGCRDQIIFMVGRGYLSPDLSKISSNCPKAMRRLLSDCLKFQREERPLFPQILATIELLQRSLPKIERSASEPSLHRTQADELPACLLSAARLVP
Summary of the method: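 A-Raf (5.55 nM) phosphorylating 30.1 nM MEK with 1 mM ATP was monitored by pyruvate kinase/lactate dehydrogenase-coupled NADH oxidation at 340 nm for 6 h at 30° C, in pH 7.5 Tris buffer with 15 mM MgCl2, 1% DMSO. Rates from 4–5 h gave percent inhibition; IC50 by four-parameter fit.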

B-Raf (V600E) kinase = target: T3, B-Raf (V600E) kinase (Homo sapiens, UniProt P15056, V600E); assay: Biochemical assay for B-Raf (V600E).1 (coupled pyruvate kinase/lactate dehydrogenase); conditions: read-out: BRAF V600E.1 IC50
T3 construct: B-Raf (V600E) residues 416-766 with a; GST (N); purchased SignalChem
T3 sequence (P15056 416-766 V600E): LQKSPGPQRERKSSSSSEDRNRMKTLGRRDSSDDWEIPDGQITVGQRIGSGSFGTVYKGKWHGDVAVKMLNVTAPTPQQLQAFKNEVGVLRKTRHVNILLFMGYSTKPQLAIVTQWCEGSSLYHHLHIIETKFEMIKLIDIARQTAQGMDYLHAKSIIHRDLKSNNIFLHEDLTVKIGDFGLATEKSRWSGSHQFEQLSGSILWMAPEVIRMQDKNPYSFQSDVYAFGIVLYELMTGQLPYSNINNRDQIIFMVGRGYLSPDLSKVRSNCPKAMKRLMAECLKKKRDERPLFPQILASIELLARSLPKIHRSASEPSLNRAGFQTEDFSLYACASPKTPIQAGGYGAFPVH
Summary of the method: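 0.03 nM B-Raf(V600E) phosphorylating 30.1 nM MEK at 1 mM ATP, pH 7.5, coupled to PK/LDH, with NADH oxidation followed at 340 nm for 6 h at 30 °C. Rates taken from the 3-4 h window. IC50 from a four-parameter fit of percent inhibition.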

SMILES	IC50 (H2405 cells) [nM]	IC50 (C-Raf kinase) [nM]	IC50 (A-Raf kinase) [nM]	IC50 (B-Raf (V600E) kinase) [nM]
CC(=O)Nc1cc(-c2cc(-c3cc(NC(=O)N[C@H]4C[C@](C)(F)C4)ccc3C)cc(OCCO)n2)ccn1 [Example 49]	100 to 500	≤ 100	100 to 500	≤ 100
Cc1cc(F)c(NC(=O)NCCC(C)(C)C#N)cc1-c1cccc(-c2ccnc(NC(=O)C3CC3)c2)c1 [Example 66]	1000 to 10000	≤ 100	> 1000	≤ 100
Cc1cc(F)c(NC(=O)NCCC2(C)CC2)cc1-c1ccnc(-c2ccnc3c2CC(=O)N3)c1 [Example 79]	500 to 1000	≤ 100	> 1000	≤ 100
Cc1cc(F)c(NC(=O)N2CC[C@H](C(F)(F)F)C2)cc1-c1cncc(-c2cc(NC(=O)C3CC3)ncn2)c1 [Example 216]	100 to 500	≤ 100	100 to 500	≤ 100
Cc1ccc(NC(=O)N2CC[C@@H](C(F)(F)F)C2)cc1-c1cncc(-c2ccnc(NC(=O)C3CC3)c2)c1 [Example 196]	500 to 1000	≤ 100	> 1000	≤ 100
Cc1ccc(NC(=O)N2CCC(F)(F)C2)cc1-c1cncc(-c2cc(NC(=O)C3CC3)ncn2)c1 [Example 209]	1000 to 10000	≤ 100	> 1000	100 to 500
COC(=O)Nc1cc(-c2cncc(-c3cc(NC(=O)N4CCCCC4)ccc3C)c2)ccn1 [Example 208]	500 to 1000	100 to 500	> 1000	> 1000
Cc1ccc(NC(=O)N2CC[C@H](C(F)(F)F)C2)cc1-c1cncc(-c2cc(NC(=O)C3CC3)ncn2)c1 [Example 195]	100 to 500	≤ 100	500 to 1000	≤ 100
COC(=O)Nc1cc(-c2nc(OCCO)cc(-c3cc(NC(=O)NC4CC(C)(C)C4)cnc3C)n2)ccn1 [Example 174]	500 to 1000	≤ 100	> 1000	≤ 100
COC(=O)Nc1cc(-c2cc(-c3cc(NC(=O)NCCC4(C)CC4)c(F)cc3C)cc(OCCO)n2)ccn1 [Example 77]	100 to 500	≤ 100	> 1000	≤ 100
COC(=O)Nc1cc(-c2nccc(-c3cc(NC(=O)N4CCC(C(F)(F)F)C4)ccc3C)n2)ccn1 (stereo not shown) [Example 193]	1000 to 10000	≤ 100	> 1000	100 to 500
Cc1ccc(NC(=O)Nc2cnc(C(F)(F)F)s2)cc1-c1cc(OCCO)nc(N2CCOCC2)c1 [Example 43]	100 to 500	≤ 100	> 1000	≤ 100
Cc1ccc(NC(=O)N2CC[C@@H](C)C2)cc1-c1cncc(-c2cc(NC(=O)C3CC3)ncn2)c1 [Example 219]	100 to 500	≤ 100	> 1000	100 to 500
Cc1cc(F)c(NC(=O)NCCC2(C)CC2)cc1-c1cc(OCC(C)(C)O)nc(-c2ccncc2)c1 [Example 34]	100 to 500	≤ 100	> 1000	≤ 100
CNC(=O)c1cc(-c2cnnc(-c3cc(NC(=O)N4CCC(C(C)(C)C)C4)cnc3C)c2)ccn1 (stereo not shown) [Example 184]	1000 to 10000	500 to 1000	> 1000	≤ 100
Cc1ncc(NC(=O)NCCC2(C)CC2)cc1-c1nccc(-c2ccnc(NC(=O)C3CC3)c2)n1 [Example 81]	100 to 500	≤ 100	> 1000	≤ 100
Cc1cc(F)c(NC(=O)NCCC2(C)CC2)cc1-c1cc(OCCO)nc(-c2ccnc(NC(=O)C3CC3)c2)c1 [Example 76]	≤ 100	≤ 100	100 to 500	≤ 100
CNC(=O)c1cc(-c2cnnc(-c3cc(NC(=O)N4CCC(C(C)(C)C)C4)ccc3C)c2)ccn1 (stereo not shown) [Example 180]	1000 to 10000	100 to 500	> 1000	≤ 100
CNC(=O)c1cc(-c2cnnc(-c3cc(NC(=O)N4CC[C@H](OC)C4)ccc3C)c2)ccn1 [Example 177]	1000 to 10000	> 1000	> 1000	100 to 500

SMILES	IC50 (H2405 cells) [nM]	IC50 (C-Raf kinase) [nM]	IC50 (A-Raf kinase) [nM]	IC50 (B-Raf (V600E) kinase) [nM]
Cc1ccc(NC(=O)N2CCC3(CC3)C2)cc1-c1cncc(-c2cc(NC(=O)C3CC3)ncn2)c1 [Example 218]	100 to 500	≤ 100	> 1000	≤ 100
COC[C@@H]1CCN(C(=O)Nc2cnc(C)c(-c3ccnc(-c4ccnc(NC(=O)OC)c4)c3)c2)C1 [Example 179]	1000 to 10000	100 to 500	> 1000	≤ 100
CNC(=O)c1cc(-c2cnnc(-c3cc(NC(=O)N4CCC5(CC5)C4)ccc3C)c2)ccn1 [Example 178]	1000 to 10000	500 to 1000	> 1000	≤ 100
Cc1cc(F)c(NC(=O)NCCC(C)(C)C#N)cc1-c1cccc(-c2cc(NC(=O)C3CC3)ncn2)c1 [Example 67]	100 to 500	≤ 100	100 to 500	≤ 100
Cc1cc(F)c(NC(=O)NCCC2(C(F)(F)F)CC2)cc1-c1cc(OCCO)nc(C2CCOCC2)c1 [Example 24]	100 to 500	≤ 100	> 1000	≤ 100
Cc1ccc(NC(=O)N2CC[C@@H](C(F)(F)F)C2)cc1-c1cncc(-c2cc(NC(=O)C3CC3)ncn2)c1 [Example 210]	100 to 500	≤ 100	500 to 1000	≤ 100
COC(=O)Nc1cc(-c2cncc(-c3cc(NC(=O)N4CCCCCC4)ccc3C)c2)ccn1 [Example 202]	1000 to 10000	100 to 500	> 1000	100 to 500
Cc1ccc(NC(=O)N2CC[C@@H](C(C)C)C2)cc1-c1cncc(-c2cc(NC(=O)C3CC3)ncn2)c1 [Example 217]	100 to 500	≤ 100	100 to 500	≤ 100
Cc1cc(F)c(NC(=O)NCCC2(C(F)(F)F)CC2)cc1-c1cc(N2CCOCC2)nc(N2CCOCC2)c1 [Example 23]	100 to 500	≤ 100	> 1000	≤ 100
CC(=O)Nc1cc(-c2cc(-c3cc(NC(=O)NCCC4(C)CC4)c(F)cc3C)cc(OCCO)n2)ccn1 [Example 33]	≤ 100	≤ 100	100 to 500	≤ 100
CC(=O)Nc1cc(-c2cc(-c3cc(NC(=O)NCCC4(C)CC4)c(F)cc3C)cc(NCCO)n2)ccn1 [Example 175]	≤ 100	≤ 100	100 to 500	≤ 100
COC(=O)Nc1cc(-c2cc(-c3cc(NC(=O)N4CC[C@H](C(F)(F)F)C4)ccc3C)nc(C)n2)ccn1 [Example 223]	1000 to 10000	100 to 500	> 1000	> 1000
CNC(=O)c1cc(-c2cnnc(-c3cc(NC(=O)N4CC[C@@H](OC)C4)ccc3C)c2)ccn1 [Example 181]	1000 to 10000	> 1000	> 1000	100 to 500
Cc1ccc(NC(=O)N2CC[C@@H](C(F)(F)F)C2)cc1-c1cccc(-c2cc(NC(=O)C3CC3)ncn2)c1 [Example 201]	100 to 500	≤ 100	> 1000	≤ 100
COC(=O)Nc1cc(-c2cc(-c3cc(NC(=O)N4CCC(C(F)(F)F)C4)ccc3C)cc(OCCO)n2)ccn1 (stereo not shown) [Example 222]	100 to 500	≤ 100	> 1000	≤ 100
COC(=O)Nc1cc(-c2cnnc(-c3cc(NC(=O)N4CCC(C(C)(C)C)C4)ccc3C)c2)ccn1 (stereo not shown) [Example 185]	100 to 500	≤ 100	> 1000	≤ 100
COC(=O)Nc1cc(-c2cnnc(-c3cc(NC(=O)N4CCC(CC(F)(F)F)C4)ccc3C)c2)ccn1 (stereo not shown) [Example 186]	100 to 500	≤ 100	> 1000	≤ 100
COC(C)(C)CCNC(=O)Nc1cnc(C)c(-c2nccc(-c3ccnc(NC(=O)C4CC4)c3)n2)c1 [Example 82]	1000 to 10000	≤ 100	> 1000	≤ 100
